Results from patent publication US8309612B2, “Method for treating age-related macular degeneration” (Santen Pharmaceutical Co., Ltd., priority 2007, dated 2012).

Experiments:
[1] = system: ARPE-19 cells (a human retinal pigment epithelial cell line); assay: Protective effect on hydrogen peroxide-induced cell damage in ARPE-19 cells; format: cell-based; settings: for Cell protective effect on hydrogen peroxide-induced cell damage (in words): 6.25 μM or 12.5 μM, hydrogen peroxide 250 μM
Procedure: Oxidative stress causes retinal pigment epithelial dysfunction and is considered to be one of the causes of development or progression of AMD (Proc. Natl. Acad. Sci. USA, 2006; 103: 11282-11287). Therefore, by using ARPE-19 cells (a human retinal pigment epithelial cell line), the protective effect of Ebselen on hydrogen peroxide-induced cell damage was evaluated. In addition, the effects of quercetin and edaravone which are compounds generally known to have an antioxidative activity were also evaluated at the same time, and comparison study was performed.
(§1) ARPE-19 cells were seeded in a 96-well plate at 5×10^3 cells/well and cultured for 24 hours under the conditions of 37° C. in a 5% CO2/95% air atmosphere. As a culture medium for ARPE-19, DMEM/F12 containing 10% fetal bovine serum, 2 mM L-glutamine and 100 U/mL penicillin and 100 μg/mL streptomycin was used. Subsequently, the culture medium was removed and exchanged with a culture medium containing Ebselen, quercetin or edaravone, or a vehicle culture medium. Incidentally, each compound was dissolved in DMSO and diluted to 1000-fold with the culture medium to prepare a culture medium containing each compound at 6.25 μM or 12.5 μM. The vehicle culture medium was prepared by diluting DMSO without containing the compound to 1000-fold with the culture medium. After the cells were cultured for 24 hours under the conditions of 37° C. in a 5% CO2/95% air atmosphere, the culture medium was removed and exchanged with a culture medium containing hydrogen peroxide (250 μM). After the cells were further cultured for 24 hours under the above-mentioned conditions, the cell viability was measured. In the measurement, Cell Counting Kit-8 (Dojin Kagaku) was used.
(§2) The mean±the standard error (%) of the cell viability of each compound-treated group was expressed by taking the mean value of the cell viability of the untreated cells as 100%. The case number in each group is 4.

ARPE-19 cells = assay: Protective effect on HNE-induced cell damage in ARPE-19 cells; format: cell-based, human; settings: for Cell protective effect on HNE-induced cell damage (in words): 12.5 μM, HNE 100 μM
Text: It is known that reactive oxygen species promote membrane lipid peroxidation, resulting in production of HNE (Exp. Eye. Res., 2006; 83: 165-175). HNE forms a covalent bond with a cysteine, lysine or histidine side chain of a protein and inhibits the normal function of the protein, and therefore has a high cytotoxic activity (Invest. Opthalmol. Vis. Sci. 2007; 48: 3469-3479). It is reported that an HNE-modified protein is present also in drusen beneath the retina which is considered to be a deposit inducing AMD, and it is considered to cause retinal pigment epithelial cell damage and also considered to be one of the causes of development or progression of a disease attributed to retinal pigment epithelial damage (Mol. Vis., 2005; 11: 1122-1134, Invest. Opthalmol. Vis. Sci., 2003; 44: 3663-3668, FEBS Lett., 2002; 528: 217-221). Therefore, by using ARPE-19 cells, the protective effect of Ebselen on HNE-induced cell damage was evaluated. In addition, the effects of quercetin and edaravone which are compounds generally known to have an antioxidative activity were also evaluated at the same time, and comparison study was performed.
as §1, with “at” for “at 6.25 μM or”, “HNE (100” for “hydrogen peroxide (250”
as §2

[2] = system: choroidal neovascularization; assay: Rat model of krypton laser-induced choroidal neovascularization; format: in vivo; settings: for Inhibition rate (%): BID, oral, 12 days, choroidal neovascularization incidence on day 7 after photocoagulation vs vehicle
Procedure: The usefulness of Ebselen was evaluated using a rat model of laser-induced choroidal neovascularization.
A rat was given general anesthesia by intramuscular administration of 1 ml/kg of a mixed solution of a 5% (w/v) ketamine hydrochloride injection solution and a 2% xylazine hydrochloride injection solution (7:1), and a 0.5% (w/v) tropicamide-0.5% phenylephrine hydrochloride ophthalmic solution was instilled into the eyes to cause mydriasis, and then, photocoagulation was performed with a krypton laser photocoagulation apparatus. The photocoagulation was performed in a posterior fundus at eight spots per eye sparsely by focusing on the retinal deep layer avoiding thick retinal blood vessels (coagulation conditions: spot size: 100 μm, output: 100 mW, coagulation time: 0.1 sec). After the photocoagulation, the ocular fundus was photographed, and the site where the laser was irradiated was confirmed. […]
On day 7 after photocoagulation, each rat was given general anesthesia by intramuscular administration of 1 ml/kg of a mixed solution of a 5% (w/v) ketamine hydrochloride injection solution and a 2% xylazine hydrochloride injection solution (7:1), and a 0.5% (w/v) tropicamide-0.5% phenylephrine hydrochloride ophthalmic solution was instilled into the eyes to cause mydriasis, and then, 0.1 ml of a 10% fluorescein solution was injected into the tail vein, and fluorescence fundus photography was performed. In the fluorescence fundus photography, a spot where fluorescence leakage was not observed (absence of neovascularization) was judged as negative, and a spot where fluorescence leakage was observed was judged as positive. When there are two photocoagulation sites where a little fluorescence leakage was observed, they were judged as positive (presence of neovascularization). The choroidal neovascularization incidence rate (%) was calculated from the number of positive spots relative to the eight laser irradiation spots in accordance with Equation 1, and the inhibition rate (%) of the drug to be evaluated was calculated in accordance with Equation 2. […]

[3] = system: ischemia-induced neovascularization in hindlimb tissues; settings: hindlimb tissues of mice; cited from earlier work
[4] = system: carotid artery remodeling and neovascularization; settings: p22phox transgenic mice; cited from earlier work
renal neovascularization = settings: ZDF rats, repeated administration; cited from earlier work

Compound | Cell protective effect on hydrogen peroxide-induced cell damage (in words) [1] | viability at 6.25 µM ([1]; Homo sapiens, ARPE-19, compound 6.25 μM, 24 h pretreatment, then hydrogen peroxide 250 μM 24 h, untreated cells = 100%, mean ± standard error) [%] | viability at 12.5 µM ([1]; Homo sapiens, ARPE-19, compound 12.5 μM, 24 h pretreatment, then hydrogen peroxide 250 μM 24 h, untreated cells = 100%, mean ± standard error) [%] | Cell protective effect on HNE-induced cell damage (in words) (ARPE-19 cells) | viability at 12.5 µM (ARPE-19 cells; Homo sapiens, ARPE-19, compound 12.5 μM, 24 h pretreatment, then HNE 100 μM 24 h, untreated cells = 100%, mean ± standard error) [%] | Inhibition rate (%) ([2]; each dose: 5 mg/kg) | Inhibition rate (%) ([2]; each dose: 15 mg/kg) | Effect on choroidal neovascularization (in words) ([2]; rat models of laser-induced choroidal neovascularization, 5 or 15 mg/kg BID oral) | Effect on ischemia-induced neovascularization (in words) [3] | Effect on carotid artery remodeling and neovascularization (in words) [4] | Effect on renal neovascularization (in words) (renal neovascularization)
O=c1c(O)c(-c2ccc(O)c(O)c2)oc2cc(O)cc(O)c12 [Quercetin, quercetin] | not found to have a cell protective effect at either concentration | 8 ± 0.1 | 3.8 ± 0.4 | not found to have a cell protective effect | 28.6 ± 0.9 |  |  |  |  |  | 
CC1=NN(c2ccccc2)C(=O)C1 [Edaravone, edaravone] | not found to have a cell protective effect at either concentration |  |  | not found to have a cell protective effect |  |  |  |  |  |  | 
O=c1c2ccccc2[se]n1-c1ccccc1 [Ebselen, 2-phenyl-1,2-benzisoselenazol-3(2H)-one] | strongly protected the cells against hydrogen peroxide-induced cell damage in a concentration-dependent manner |  |  | strongly protected the cells against HNE-induced cell damage |  | 26.9 | 28.9 | inhibits choroidal neovascularization | inhibited ischemia-induced neovascularization | inhibited endogenous hydrogen peroxide-induced carotid artery remodeling and neovascularization | renal neovascularization was restored
